Patent publication US20060148735A1, “Methods for treating, preventing, or reducing cardiac disorders using fadd inhibitors” (priority 2002, published 2006)
“Also recorded” adds a separate entry of the source. Where a SMILES comes first, the peptide text is derived from it. The star is where a group is joined. Cbz = O=C(OCc1ccccc1)*; CH2F = FC*

Tests used:
[1] = test system: rat neonatal cardiomyocytes; assay: Hypoxia/serum-deprivation-induced cardiomyocyte apoptosis (cell death ELISA, DNA laddering); type: cell-based
Procedure: (§1) Cardiomyocytes (CM) were prepared from 1-2 day-old rats as described by Matsui et al. (Circulation 100:2373-9, 1999). All CM were incubated in RPMI-1640 containing 5% FBS and 10% horse serum. Neonatal CM grown in 60 mm dishes were infected with Ad.EGFP.β-gal (MOI 20), Ad.FADD-wt, or Ad.FADD-dn (MOI 20), for 24 hours prior to exposure to transient hypoxic conditions, lasting up to 24 hours. To expose CM to transient hypoxia conditions, CM media is changed to N2/CO2-saturated serum-free F10 and cells are placed in an airtight N2-saturated container at 37° C. for up to 24 hours. Hypoxia was confirmed by oxymetry measurements. To examine the role of FADD in inflammatory signaling, cultured neonatal rat CM were stimulated with TNF-α (50 ng/ml) for 4 hours. Nuclear and cytoplasmic extracts were prepared.
For determination of DNA laddering, cellular DNA is extracted with phenol:chloroform, treated with RNase, ^32P-labeled, and then visualized by electrophoresis in 1.8% agarose gel.
Histone-associated DNA fragments were quantified by cell death ELISA as described in the manufacturer's protocol. DNA fragmentation data were corrected for background and normalized to the result with normoxic cardiomyocytes.

[2] = test system: caspase-8; assay: Caspase-8 activity (colorimetric assay) in cardiomyocytes; type: cell-based, rat; conditions: listed as zIETD-fink
Procedure: as §1
(§2) Optionally, apoptosis may also be measured by the protein or gene expression, or alternatively, by the activity of surrogate markers of apoptosis including, for example, caspase activity. Caspase-3, -8, and -9 activity may be examined by using the caspase colorimetric assay kit from R&D Systems according to the manufacturer's protocol. Briefly, cells are scraped, collected, washed with cold PBS, and lysed in cold lysis buffer. […] Release of the pNA cleavage product is quantitated in a microplate reader (Bio-Rad) at a wavelength of 405 nm.

[3] = test system: caspase-9; assay: Caspase-9 activity (colorimetric assay) in cardiomyocytes; type: cell-based, rat; conditions: pretreatment or over-expression
Procedure: as §1, §2

[4] = test system: NF-κB; assay: TNF-α-induced NF-κB activation in neonatal rat cardiomyocytes (p65 translocation, IκB-α phosphorylation, EMSA); type: cell-based; conditions: 50 μM
Procedure: as §1, with “prepared. […]” for “prepared.”
Cells were harvested and nuclear extracts prepared as above. […] Nuclear proteins and oligonucleotide were then separated with native PAGE and detected by autoradiography.
Proteins were separated by SDS-PAGE performed under reducing conditions on 7.5%, 10%, and 12% separation gels with a 4% stacking gel. […] After washing, membranes were incubated with horseradish peroxidase-conjugated secondary antibody and immunoreactive bands detected by chemiluminescence.

| Compound | CM apoptosis in response to hypoxia/SD ([1]; 4 h hypoxia/SD) | hypoxia/SD-induced caspase-8 activation [2] | hypoxia/SD-induced activation of caspase-9 [3] | reversal of the FADD effect on NF-κB [4] | hypoxia/SD-induced apoptosis (ELISA for histone-associated DNA fragmentation, DNA laddering) ([1]; concentrations ranging from 50 to 100 μM) |
| --- | --- | --- | --- | --- | --- |
| CC[C@H](C)[C@H](NC(=O)OCc1ccccc1)C(=O)N[C@@H](CCC(=O)OC)C(=O)N[C@H](C(=O)N[C@@H](CC(=O)OC)C(=O)CF)[C@@H](C)O [zIETD-fmk] (Cbz-IE(OMe)TD(OMe)-CH2F) | completely inhibited | completely inhibited; also recorded: effectively blocked | completely inhibited | failed to reverse | – |
| COC(=O)C[C@H](NC(=O)[C@H](C)NC(=O)[C@@H](NC(=O)OCc1ccccc1)C(C)C)C(=O)CF [zVAD-fmk] (Cbz-Val-Ala-Asp(OMe)-CH2F) | – | – | – | – | inhibited |
